These results are taken from ChEMBL document CHEMBL1126764, “Bicyclic thiazolidine lactam peptidomimetics of the dopamine receptor modulating peptide Pro-Leu-Gly-NH2” (J Med Chem, 1993).

For this experiment, the target named is Dopamine receptor (Bos taurus) (UniProt Q95136+P20288). In words: Ability to enhance the binding of [3H]- ADTN to dopamine receptor from freshly dissected bovine caudate. It is filed as protein assay.

Consider `NC(=O)[C@H]1CS[C@@H]2CC[C@@H](NC(=O)C3CCCN3)C(=O)N12` (some centres not stated), for which the Enhancement was found to be 75%.

With `NC(=O)[C@H]1CS[C@@H]2C[C@@H](NC(=O)C3CCCN3)C(=O)N12` (some centres not stated), the Enhancement was 200%.
